According to PMC3940203, “Elements in nucleotide sensing and hydrolysis of the AAA+ disaggregation machine ClpB: a structure-based mechanistic dissection of a molecular motor” (Acta Crystallographica Section D: Biological Crystallography, 2014):

Tests used:
[1] = molecular target: T1, ClpB NBD2 (Thermus thermophilus, UniProt Q9RA63, N709A); assay: stopped-flow FRET, displacement and competition with MANT-dADP, global fit; Kd = koff/kon; type: binding; conditions: 50 mM Tris-HCl pH 7.5, 200 mM KCl, 5 mM MgCl2, 2 mM EDTA, 25 °C
T1 sequence (Q9RA63 520-854 N709A): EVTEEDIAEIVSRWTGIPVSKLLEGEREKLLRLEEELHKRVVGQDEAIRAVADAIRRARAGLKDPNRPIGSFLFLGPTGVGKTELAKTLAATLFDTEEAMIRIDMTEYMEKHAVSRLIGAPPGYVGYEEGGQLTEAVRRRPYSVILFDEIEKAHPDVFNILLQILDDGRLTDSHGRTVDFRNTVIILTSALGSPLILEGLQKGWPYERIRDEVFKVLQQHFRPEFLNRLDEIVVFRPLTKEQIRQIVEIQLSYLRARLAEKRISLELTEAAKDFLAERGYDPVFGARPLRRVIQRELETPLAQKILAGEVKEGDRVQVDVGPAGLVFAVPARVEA
Text: (§1) stopped-flow FRET, displacement and competition with MANT-dADP, global fit; Kd = koff/kon on ClpB NBD2

[2] = molecular target: T2, ClpB NBD2 (Thermus thermophilus, UniProt Q9RA63); assay: X-ray crystal structure, […] Å; type: binding; conditions: co-crystal with 2 mM ADP, pH 7.0; nucleotide site of NBD2, no Mg2+ bound
T2 sequence (Q9RA63 520-854): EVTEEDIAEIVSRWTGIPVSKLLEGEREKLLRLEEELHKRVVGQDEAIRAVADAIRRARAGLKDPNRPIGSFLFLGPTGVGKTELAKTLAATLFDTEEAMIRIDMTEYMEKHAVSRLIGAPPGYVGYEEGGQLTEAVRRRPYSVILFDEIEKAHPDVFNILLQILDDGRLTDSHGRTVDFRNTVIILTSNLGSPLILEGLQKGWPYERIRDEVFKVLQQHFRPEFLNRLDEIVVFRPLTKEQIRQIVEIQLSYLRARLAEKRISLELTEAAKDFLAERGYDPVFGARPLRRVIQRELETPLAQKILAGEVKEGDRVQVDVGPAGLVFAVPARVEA

[3] = molecular target: T3, ClpB NBD2 (Thermus thermophilus, UniProt Q9RA63, R806A); assay: stopped-flow FRET, displacement and competition with MANT-dADP, global fit; Kd = koff/kon; conditions: 50 mM Tris-HCl pH 7.5, 200 mM KCl, 5 mM MgCl2, 2 mM EDTA, 25 °C; read-out: Nucleotide binding / K d
T3 sequence (Q9RA63 520-854 R806A): as the sequence (Q9RA63 520-854 N709A) above, with A190N, R287A counted along it
Text: as §1

[4] = molecular target: T4, ClpB NBD2 (Thermus thermophilus, UniProt Q9RA63, R621Q); assay: as above; conditions: 50 mM Tris-HCl pH 7.5, 200 mM KCl, 5 mM MgCl2, 2 mM EDTA, 25 °C; read-out: Nucleotide binding / K d
T4 sequence (Q9RA63 520-854 R621Q): as the sequence (Q9RA63 520-854 N709A) above, with R102Q, A190N counted along it
Text: as §1

[5] = molecular target: T2, ClpB NBD2; assay: X-ray crystal structure, […] Å; type: binding; conditions: co-crystal with 2 mM AMPPCP, pH 7.0; nucleotide site of NBD2, no Mg2+ bound
[6] = molecular target: T3, ClpB NBD2; assay: stopped-flow FRET, competition and displacement with MANT-dADP, global fit; Kd = koff/kon; conditions: 50 mM Tris-HCl pH 7.5, 200 mM KCl, 5 mM MgCl2, 2 mM EDTA, 25 °C; ATP-regenerating system (pyruvate kinase, phosphoenolpyruvate); read-out: Nucleotide binding / K d
Text: (§2) stopped-flow FRET, competition and displacement with MANT-dADP, global fit; Kd = koff/kon on ClpB NBD2

[7] = molecular target: T1, ClpB NBD2; assay: as above; conditions: 50 mM Tris-HCl pH 7.5, 200 mM KCl, 5 mM MgCl2, 2 mM EDTA, 25 °C; ATP-regenerating system (pyruvate kinase, phosphoenolpyruvate); read-out: Nucleotide binding / K d
Text: as §2

[8] = molecular target: T4, ClpB NBD2; assay: as above; conditions: 50 mM Tris-HCl pH 7.5, 200 mM KCl, 5 mM MgCl2, 2 mM EDTA, 25 °C; ATP-regenerating system (pyruvate kinase, phosphoenolpyruvate); read-out: Nucleotide binding / K d
Text: as §2

[9] = molecular target: T3, ClpB NBD2; assay: stopped-flow FRET, direct mixing and displacement, global fit; Kd = koff/kon; type: binding; conditions: 50 mM Tris-HCl pH 7.5, 200 mM KCl, 5 mM MgCl2, 2 mM EDTA, 25 °C; labelled compound
Text: (§3) stopped-flow FRET, direct mixing and displacement, global fit; Kd = koff/kon on ClpB NBD2

[10] = molecular target: T1, ClpB NBD2; assay: as above; type: binding; conditions: 50 mM Tris-HCl pH 7.5, 200 mM KCl, 5 mM MgCl2, 2 mM EDTA, 25 °C; labelled compound
Text: as §3

[11] = molecular target: T4, ClpB NBD2; assay: as above; type: binding; conditions: 50 mM Tris-HCl pH 7.5, 200 mM KCl, 5 mM MgCl2, 2 mM EDTA, 25 °C; labelled compound
Text: as §3

## Nc1ncnc2c1ncn2[C@@H]1O[C@H](COP(=O)(O)OP(=O)(O)O)[C@@H](O)[C@H]1O [ADP]
[1]
  Nucleotide binding / K d (μM): 0.43 ± 8 × 10^−3 µM
[2]
  X-ray crystal structure, 2.4 Å: Wild-type ClpB NBD2 in complex with ADP, PDB entry 4lj5
[3]
  Kd: 3.8 ± 0.06 µM
[4]
  Kd: 1.5 ± 0.02 µM

## Nc1ncnc2c1ncn2[C@@H]1O[C@H](COP(=O)(O)OP(=O)(O)CP(=O)(O)O)[C@@H](O)[C@H]1O [AMPPCP]
[5]
  X-ray crystal structure, 1.9 Å: Wild-type ClpB NBD2 in complex with AMPPCP, PDB entry 4lj6

## Nc1ncnc2c1ncn2[C@@H]1O[C@H](COP(=O)(O)OP(=O)(O)OP(=O)(O)O)[C@@H](O)[C@H]1O [ATP]
[6]
  Kd: 84 ± 4 µM
[7]
  Kd: 74 ± 3 µM
[8]
  Kd: 55 ± 2 µM

## CNc1ccccc1C(=O)O[C@H]1C[C@H](n2cnc3c(N)ncnc32)O[C@@H]1COP(=O)(O)OP(=O)(O)O [MANT-dADP]
[9]
  Nucleotide binding / K d (μM): 0.027 ± 1 × 10^−4 µM
[10]
  Nucleotide binding / K d (μM): 0.0024 ± 3 × 10^−5 µM
[11]
  Nucleotide binding / K d (μM): 0.0068 ± 8 × 10^−5 µM

## CNc1ccccc1C(=O)O[C@H]1C[C@H](n2cnc3c(N)ncnc32)O[C@@H]1COP(=O)(O)OP(=O)(O)OP(=O)(O)O [MANT-dATP]
[9]
  Nucleotide binding / K d (μM): 0.29 ± 2 × 10^−3 µM
